# Source: the supplement of paper PMC5908809
# Experiments:
# Assay in all cases: percent inhibition of viability; higher = more inhibition
# Settings in all cases: 72 h
# NKL (IL-2 2.5 ng/mL) = system: NKL (IL-2 2.5 ng/mL)
# KAI3 (IL-2 2.5 ng/mL) = system: KAI3 (IL-2 2.5 ng/mL)
# IMC-1 (IL-2 20 ng/mL) = system: IMC-1 (IL-2 20 ng/mL)
# KHYG-1 (IL-2 2.5 ng/mL) = system: KHYG-1 (IL-2 2.5 ng/mL)
# SNK-6 (IL-2 2.5 ng/mL) = system: SNK-6 (IL-2 2.5 ng/mL)
# DERL-7 (IL-2 2.5 ng/mL) = system: DERL-7 (IL-2 2.5 ng/mL)
# [1] = system: normal primary NK cells, pool 1 (3 donors) (IL-2 2.5 ng/mL)
# [2] = system: normal primary NK cells, pool 2 (3 donors) (IL-2 2.5 ng/mL)
# NK-YS (IL-2 2.5 ng/mL) = system: NK-YS (IL-2 2.5 ng/mL)
# 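Note: normalised to DMSO-only wells as negative and benzethonium chloride as positive control.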
compound,measurement,setting,value
CCn1nnc2c(N3CCOCC3)nc(-c3ccc(NC(=O)Nc4ccc(C(=O)N5CCN(C)CC5)cc4)cc3)nc21 [PKI-402] (max concentration tested 2500 nM),percent inhibition of viability,NKL (IL-2 2.5 ng/mL); 0.25 nM,-5.68%
same,percent inhibition of viability,NKL (IL-2 2.5 ng/mL); 2.5 nM,-11.2%
same,percent inhibition of viability,NKL (IL-2 2.5 ng/mL); 25 nM,4.32%
same,percent inhibition of viability,NKL (IL-2 2.5 ng/mL); 250 nM,60%
same,percent inhibition of viability,NKL (IL-2 2.5 ng/mL); 2500 nM,68.9%
same,percent inhibition of viability,KAI3 (IL-2 2.5 ng/mL); 0.25 nM,-2.89%
same,percent inhibition of viability,KAI3 (IL-2 2.5 ng/mL); 2.5 nM,-4.76%
same,percent inhibition of viability,KAI3 (IL-2 2.5 ng/mL); 25 nM,8.59%
same,percent inhibition of viability,KAI3 (IL-2 2.5 ng/mL); 250 nM,55.9%
same,percent inhibition of viability,KAI3 (IL-2 2.5 ng/mL); 2500 nM,67.9%
same,percent inhibition of viability,IMC-1 (IL-2 20 ng/mL); 0.25 nM,-5.86%
same,percent inhibition of viability,IMC-1 (IL-2 20 ng/mL); 2.5 nM,-7.07%
same,percent inhibition of viability,IMC-1 (IL-2 20 ng/mL); 25 nM,-15%
same,percent inhibition of viability,IMC-1 (IL-2 20 ng/mL); 250 nM,-6.11%
same,percent inhibition of viability,IMC-1 (IL-2 20 ng/mL); 2500 nM,25.1%
same,percent inhibition of viability,KHYG-1 (IL-2 2.5 ng/mL); 0.25 nM,-6.21%
same,percent inhibition of viability,KHYG-1 (IL-2 2.5 ng/mL); 2.5 nM,-11%
same,percent inhibition of viability,KHYG-1 (IL-2 2.5 ng/mL); 25 nM,-2.81%
same,percent inhibition of viability,KHYG-1 (IL-2 2.5 ng/mL); 250 nM,30.4%
same,percent inhibition of viability,KHYG-1 (IL-2 2.5 ng/mL); 2500 nM,84.9%
same,percent inhibition of viability,SNK-6 (IL-2 2.5 ng/mL); 0.25 nM,-8.78%
same,percent inhibition of viability,SNK-6 (IL-2 2.5 ng/mL); 2.5 nM,-15.4%
same,percent inhibition of viability,SNK-6 (IL-2 2.5 ng/mL); 25 nM,-7.51%
same,percent inhibition of viability,SNK-6 (IL-2 2.5 ng/mL); 250 nM,33.2%
same,percent inhibition of viability,SNK-6 (IL-2 2.5 ng/mL); 2500 nM,54.5%
same,percent inhibition of viability,DERL-7 (IL-2 2.5 ng/mL); 0.25 nM,-1.72%
same,percent inhibition of viability,DERL-7 (IL-2 2.5 ng/mL); 2.5 nM,1.39%
same,percent inhibition of viability,DERL-7 (IL-2 2.5 ng/mL); 25 nM,10.1%
same,percent inhibition of viability,DERL-7 (IL-2 2.5 ng/mL); 250 nM,79.5%
same,percent inhibition of viability,DERL-7 (IL-2 2.5 ng/mL); 2500 nM,93.8%
same,percent inhibition of viability,[1]; 0.25 nM,1.41%
same,percent inhibition of viability,[1]; 2.5 nM,-3.9%
same,percent inhibition of viability,[1]; 25 nM,19.1%
same,percent inhibition of viability,[1]; 250 nM,28.9%
same,percent inhibition of viability,[1]; 2500 nM,48.2%
same,percent inhibition of viability,[2]; 0.25 nM,-8.91%
same,percent inhibition of viability,[2]; 2.5 nM,-3.82%
same,percent inhibition of viability,[2]; 25 nM,2.65%
same,percent inhibition of viability,[2]; 250 nM,17.3%
same,percent inhibition of viability,[2]; 2500 nM,38.4%
same,percent inhibition of viability,NK-YS (IL-2 2.5 ng/mL); 0.25 nM,-6.47%
same,percent inhibition of viability,NK-YS (IL-2 2.5 ng/mL); 2.5 nM,-8.86%
